Source: US12441722B2, “Therapeutic agents and methods of treatment” (University of Florida Research Foundation, Incorporated, priority 2020, dated 2025)
pEC50: −log10 of the molar value.

Tested on: MOLT-4
Test: Cell viability assay (tetrazolium-based MTS) in MOLT4 cells
Settings: MOLT4 acute lymphoblastic leukemia cells, 48 h incubation
Procedure: Cancer cells from acute lymphoblastic leukemia (MOLT4) were incubated with increasing concentrations of compounds of Examples 1-9 for 48 h. Cell viability was measured by tetrazolium-based MTS assay. 5×10^4 to 1×10^5 suspension cells or 3×10^3 to 5×10^3 adherent cells were seeded and treated in 96-well plates for 48 h. The EC50 values of individual agents were calculated with GraphPad Prism.

Row | Structure (SMILES) | pEC50
1 | Cc1ncsc1-c1ccc([C@H](CC(=O)NCCCCCCNC(=O)c2nc(N3CCc4cccc(C(=O)Nc5nc6ccccc6s5)c4C3)ccc2-c2cnn(CC34CC5CC(CC(C5)C3)C4)c2C)NC(=O)[C@@H]2C[C@@H](O)CN2C(=O)[C@@H](NC(=O)C2(C#N)CC2)C(C)(C)C)cc1 [degrader #24, 2-(5-(1-(adamantan-1-ylmethyl)-5-methyl-1H-pyrazol-4-yl)-6-((6-((S)-3-((2S,4R)-1-((S)-2-(1-cyanocyclopropane-1-carboxamido)-3,3-dimethylbutanoyl)-4-hydroxypyrrolidine-2-carboxamido)-3-(4-(4-methylthiazol-5-yl)phenyl)propanamido)hexyl)carbamoyl)pyridin-2-yl)-N-(benzo[d]thiazol-2l)-1,2,3,4-tetrahydroisoquinoline-8-carboxamide] | 6.00 to 7.00
2 | Cc1ncsc1-c1ccc([C@H](CC(=O)NCCCCCCCCNC(=O)c2nc(N3CCc4cccc(C(=O)Nc5nc6ccccc6s5)c4C3)ccc2-c2cnn(CC34CC5CC(CC(C5)C3)C4)c2C)NC(=O)[C@@H]2C[C@@H](O)CN2C(=O)[C@@H](NC(=O)C2(C#N)CC2)C(C)(C)C)cc1 [degrader #25, 2-(5-(1-(adamantan-1-ylmethyl)-5-methyl-1H-pyrazol-4-yl)-6-((8-((S)-3-((2S,4R)-1-((S)-2-(1-cyanocyclopropane-1-carboxamido)-3,3-dimethylbutanoyl)-4-hydroxypyrrolidine-2-carboxamido)-3-(4-(4-methylthiazol-5-yl)phenyl)propanamido)octyl)carbamoyl)pyridin-2-yl)-N-(benzo[d]thiazol-2-yl)-1,2,3,4-tetrahydroisoquninoline-8-carboxamide] | 6.00 to 7.00
3 | Cc1c(-c2ccc(N3CCc4cccc(C(=O)Nc5nc6ccccc6s5)c4C3)nc2C(=O)NCCOCCOCCOCC#Cc2cccc3c2C(=O)N(C2CCC(=O)NC2=O)C3=O)cnn1CC12CC3CC(CC(C3)C1)C2 (centres unmarked) [degrader #26, 2-(5-(1-(adamantan-1-ylmethyl)-5-methyl-1H-pyrazol-4-yl)-6-((2-(2-(2-((3-(2-(2,6-dioxopiperidin-3-yl)-1,3-dioxoisoindolin-4-yl)prop-2-yn-1-yl)oxy)ethoxy)ethoxy)ethyl)carbamoyl)pyridin-2-yl)-N-(benzo[d]thiazol-2-yl)-1,2,3,4-tetrahydroisocuinoline-8-carboxamide] | 7.00 to 8.00

Second part, the molecule after the results:

Row | pEC50 | Structure (SMILES)
4 | 7.00 to 8.00 | Cc1c(-c2ccc(N3CCc4cccc(C(=O)Nc5nc6ccccc6s5)c4C3)nc2C(=O)NCCOCCOCCOCC#Cc2ccc3c(c2)C(=O)N(C2CCC(=O)NC2=O)C3=O)cnn1CC12CC3CC(CC(C3)C1)C2 (centres unmarked) [degrader #27, 2-(5-(1-(adamantan-1-ylmethyl)-5-methyl-1H-pyrazol-4-yl)-6-((2-(2-(2-((3-(2-(2,6-dioxopiperidin-3-yl)-1,3-dioxoisoindolin-5-yl)prop-2-yn-1-yl)oxy)ethoxy)ethoxy)ethyl)carbamoyl)pyridin-2-yl)-N-(benzo[d]thiazol-2-yl)-1,2,3,4-tetrahydroisocuinoline-8-carboxamnide]
5 | > 8.00 | Cc1c(-c2ccc(N3CCc4cccc(C(=O)Nc5nc6ccccc6s5)c4C3)nc2C(=O)NCCOCCOCCOCC#Cc2cccc3c2CN(C2CCC(=O)NC2=O)C3=O)cnn1CC12CC3CC(CC(C3)C1)C2 (centres unmarked) [degrader #28, 2-(5-(1-(adamantan-1-ylmethyl)-5-methyl-1H-pyrazol-4-yl)-6-((2-(2-(2-((3-(2-(2,6-dioxopiperidin-3-yl)-1-oxoisoindolin-4-yl)prop-2-yn-1-yl)oxy)ethoxy)ethoxy)ethyl)carbamoyl)pyridin-2-yl)-N-(benzo[d]thiazol-2-yl)-1,2,3,4-tetrahydroisoguinoline-8-carboxamide]
